Data reported in PubChem BioAssay AID280 (DTP/NCI, 2004).
“And” between values parts separate entries of the source, which are not always exact repeats. Equal entries are not always repeated. Toxic doses and inconclusive results are not listed.

Test system: nude mice, LOX melanoma ip, survival T/C
Assay: NCI In Vivo Anticancer Drug Screen. Data for tumor model Human Amelanotic Melanoma (LOX) (intraperitoneal) in NU/NU BALB/C (nude) mice
Conditions: endpoint: median survival time, schedule: Q04DX003 (ip), higher = longer survival
Description: The antitumor activity of compounds was measured in mice bearing transplantable tumors. Survival or tumor size were measured and the results are expressed as the measurement made in the treated group (T) divided by the measurement made in the vehicle treated control group (C). The tumor model used in this assay is Human Amelanotic Melanoma (LOX) (intraperitoneal) in NU/NU BALB/C (nude) mice

[1] = dose: 37.5 mg/kg/injection, vehicle: Klucel (hydroxypropylcellulose) (HPC)
[2] = dose: 75.0 mg/kg/injection, vehicle: Klucel (hydroxypropylcellulose) (HPC)
[3] = dose: 60.0 mg/kg/injection, vehicle: saline
[4] = dose: 12.5 mg/kg/injection, vehicle: saline
[5] = dose: 50.0 mg/kg/injection, vehicle: saline

For COc1cc(NCc2ccc3nc(N)nc(N)c3c2C)cc(OC)c1OC, the T/C (dose: 7.5 mg/kg/injection, vehicle: Klucel (hydroxypropylcellulose) (HPC)) was 151 % of control, the T/C (dose: 15.0 mg/kg/injection, vehicle: Klucel (hydroxypropylcellulose) (HPC)) was 118 % of control and the T/C (dose: 30.0 mg/kg/injection, vehicle: Klucel (hydroxypropylcellulose) (HPC)) was 118 % of control. The T/C (dose: 60.0 mg/kg/injection, vehicle: Klucel (hydroxypropylcellulose) (HPC)) was 123 % of control.
For CN(C)c1ccc2c(Nc3ccc(NS(C)(=O)=O)cc3)c3ccc(N(C)C)cc3nc2c1, the T/C (dose: 25.0 mg/kg/injection, vehicle: Klucel (hydroxypropylcellulose) (HPC)) was 101 % of control, the T/C (dose: 50.0 mg/kg/injection, vehicle: Klucel (hydroxypropylcellulose) (HPC)) was 98 % of control and the T/C (dose: 100.0 mg/kg/injection, vehicle: Klucel (hydroxypropylcellulose) (HPC)) was 113 % of control. The T/C (dose: 200.0 mg/kg/injection, vehicle: Klucel (hydroxypropylcellulose) (HPC)) was 163 % of control and the T/C (dose: 400.0 mg/kg/injection, vehicle: Klucel (hydroxypropylcellulose) (HPC)) was 109 % of control.
For CC(=O)Nc1ccc(Nc2ccc(C(=C3C=CC(=[N+](C)CCC#N)C=C3)c3ccc(N(C)CCC#N)cc3)cc2)cc1, the T/C (dose: 6.25 mg/kg/injection, vehicle: suspension in saline) was 101 % of control, the T/C (dose: 12.5 mg/kg/injection, vehicle: suspension in saline) was 111 % of control and the T/C (dose: 25.0 mg/kg/injection, vehicle: suspension in saline) was 116 % of control. The T/C (dose: 30.0 mg/kg/injection, vehicle: suspension in saline) was 120 % of control, the T/C (dose: 50.0 mg/kg/injection, vehicle: suspension in saline) was 111 % of control and 121 % of control and the T/C (dose: 83.0 mg/kg/injection, vehicle: suspension in saline) was 110 % of control. For the same compound, the T/C (dose: 100.0 mg/kg/injection, vehicle: suspension in saline) was 124 % of control.
With C=C1c2cccc(O)c2C(O)=C2C(=O)[C@]3(O)C(O)=C(C(N)=O)C(=O)[C@@H](N(C)C)[C@@H]3[C@@H](O)[C@H]12 the T/C [1] was 94 % of control, the T/C [2] was 91 % of control and the T/C (dose: 300.0 mg/kg/injection, vehicle: Klucel (hydroxypropylcellulose) (HPC)) was 92 % of control.
COc1cccc2c1C(=O)C1=C(C2=O)c2c(O)cc(CO)cc2C(O)C1O (centres undefined) was tested, and the T/C (dose: 6.25 mg/kg/injection, vehicle: saline + Tween-80 + alcohol) was 98 % of control, the T/C (dose: 12.5 mg/kg/injection, vehicle: saline + Tween-80 + alcohol) was 109 % of control and the T/C (dose: 25.0 mg/kg/injection, vehicle: saline + Tween-80 + alcohol) was 112 % of control. The T/C (dose: 50.0 mg/kg/injection, vehicle: saline + Tween-80 + alcohol) was 109 % of control.
NC(=S=O)C(N)=S=O was tested, and the T/C (dose: 62.5 mg/kg/injection, vehicle: saline with Tween-80) was 109 % of control, the T/C (dose: 125.0 mg/kg/injection, vehicle: saline with Tween-80) was 105 % of control and the T/C (dose: 250.0 mg/kg/injection, vehicle: saline with Tween-80) was 105 % of control. The T/C (dose: 500.0 mg/kg/injection, vehicle: saline with Tween-80) was 105 % of control.
In the case of CCCn1c(SC)nc(COC(=O)NC)c1COC(=O)NC, the T/C (dose: 30.0 mg/kg/injection, vehicle: saline) is reported as 104 % of control, the T/C [3] is reported as 123 % of control and the T/C (dose: 106.8 mg/kg/injection, vehicle: water) is reported as 98 % of control. The T/C (dose: 120.0 mg/kg/injection, vehicle: saline) was 119 % of control, the T/C (dose: 160.1 mg/kg/injection, vehicle: water) was 103 % of control and the T/C (dose: 240.0 mg/kg/injection, vehicle: saline) was 191 % of control. For the same compound, the T/C (dose: 240.0 mg/kg/injection, vehicle: water) was 122 % of control, the T/C (dose: 359.8 mg/kg/injection, vehicle: water) was 189 % of control and the T/C (dose: 480.0 mg/kg/injection, vehicle: saline) was 170 % of control.
For CC(=O)C[n+]1ccccc1Sc1ccc(Cl)cc1, the T/C (dose: 1.5 mg/kg/injection, vehicle: saline with Tween-80) was 95 % of control, the T/C (dose: 3.0 mg/kg/injection, vehicle: saline with Tween-80) was 94 % of control and the T/C (dose: 6.0 mg/kg/injection, vehicle: saline with Tween-80) was 99 % of control. For the same compound, the T/C (dose: 12.0 mg/kg/injection, vehicle: saline with Tween-80) was 96 % of control and the T/C (dose: 24.0 mg/kg/injection, vehicle: saline with Tween-80) was 95 % of control.
For [Cl][Hg][Cl], the T/C (dose: 0.63 mg/kg/injection, vehicle: saline) was 88 % of control and 96 % of control, the T/C (dose: 2.5 mg/kg/injection, vehicle: saline) was 95 % of control and the T/C (dose: 5.0 mg/kg/injection, vehicle: saline) was 91 % of control.
In the case of CCCCCNc1ncnc2c(C)[nH]nc12, the T/C (dose: 18.75 mg/kg/injection, vehicle: Klucel (hydroxypropylcellulose) (HPC)) is reported as 103 % of control, the T/C [1] is reported as 94 % of control and the T/C [2] is reported as 98 % of control. For the same compound, the T/C (dose: 150.0 mg/kg/injection, vehicle: Klucel (hydroxypropylcellulose) (HPC)) was 94 % of control.
For Cn1c2ccccc2c2ccc3c(c21)C(=O)C=CC3=O, the T/C (dose: 9.38 mg/kg/injection, vehicle: saline with Tween-80) was 90 % of control, the T/C (dose: 18.75 mg/kg/injection, vehicle: saline with Tween-80) was 94 % of control and the T/C (dose: 37.5 mg/kg/injection, vehicle: saline with Tween-80) was 88 % of control. The T/C (dose: 75.0 mg/kg/injection, vehicle: saline with Tween-80) was 112 % of control and the T/C (dose: 150.0 mg/kg/injection, vehicle: saline with Tween-80) was 100 % of control.
With O=P1(N(CCCl)CCCl)NCCCO1 (centres undefined) the T/C (dose: 40.0 mg/kg/injection, vehicle: saline) was 111 % of control, the T/C [3] was 115 % of control and the T/C (dose: 90.0 mg/kg/injection, vehicle: saline) was 101 % of control.
In the case of O=C(Nc1cccc(O)c1)C(Cl)=C(Cl)Cl, the T/C (dose: 6.25 mg/kg/injection, vehicle: DMSO) is reported as 96 % of control, the T/C (dose: 12.5 mg/kg/injection, vehicle: DMSO) is reported as 91 % of control and the T/C (dose: 25.0 mg/kg/injection, vehicle: DMSO) is reported as 95 % of control. For the same compound, the T/C (dose: 50.0 mg/kg/injection, vehicle: DMSO) was 94 % of control.
In the case of CC1(C)Nc2cc3c(cc2-n2cccc21)oc1ccccc13, the T/C (dose: 37.5 mg/kg/injection, vehicle: DMSO) is reported as 100 % of control, the T/C (dose: 75.0 mg/kg/injection, vehicle: DMSO) is reported as 100 % of control and the T/C (dose: 150.0 mg/kg/injection, vehicle: DMSO) is reported as 117 % of control. For the same compound, the T/C (dose: 300.0 mg/kg/injection, vehicle: DMSO) was 91 % of control.
CN(C)CCCN=c1c2ccccc2n(C)c2[nH]c(=O)n(C)c(=O)c12 was tested, and the T/C [4] was 112 % of control and the T/C [5] was 107 % of control.
CS(=O)(=O)CS(=O)(=O)OCCF was tested, and the T/C (dose: 3.13 mg/kg/injection, vehicle: saline) was 152 % of control, the T/C (dose: 6.25 mg/kg/injection, vehicle: saline) was 295 % of control and the T/C [4] was 295 % of control. The T/C (dose: 25.0 mg/kg/injection, vehicle: saline) was 295 % of control and the T/C [5] was 295 % of control.
In the case of S=C1CCCCN1, the T/C (dose: 37.5 mg/kg/injection, vehicle: distilled water + Tween-80 + alcohol) is reported as 98 % of control, the T/C (dose: 75.0 mg/kg/injection, vehicle: distilled water + Tween-80 + alcohol) is reported as 100 % of control and the T/C (dose: 150.0 mg/kg/injection, vehicle: distilled water + Tween-80 + alcohol) is reported as 111 % of control.
